The target of assay [1] is T1, human recombinant PDE9 protein (Homo sapiens, UniProt O76083).
T1 construct: made in house; host or cells: silkworm (pYNG vector, Katakura Industries)
The experiment in a line: PDE9 inhibitory activity test ([3H]-cGMP hydrolysis). Type of assay: biochemical. The protocol: An hsPDE9A 1cDNA fragment was amplified by being based on a base sequence (Accession No.: AF048837) of the hsPDE9A1 registered on GenBank data base, and by using the following sequences (Hokkaido System Science Co., Ltd.) as a primer and Human hippocampus cDNA library (Clontech Laboratories, Inc.) as a template DNA, and using Pfu50 DNA polymerase (Invitrogen Corp.), and by a polymerase chain reaction (PCR) of the following condition.
The condition of PCR: [96° C., 5 min]×1 cycle, [(96° C., 10 sec), (57° C., 5 sec), (72° C., 2 min)]×30 cycles
The obtained hsPDE9A 1cDNA fragment was incorporated in a TOPO-TA cloning vector (Invitrogen Corp.), and the base sequence was checked; and thereafter, the resultant was transfected in a pcDNA 3.1/myc His-tag vector (Invitrogen Corp.) to thereby make a human PDE9 expression vector for mammal cells. The human PDE9 expression vector for mammal cells was transfected with transient expression to an HEK293 cell by using a LIPOFETAMINE 2000 Reagent (Gibco). It was confirmed by Western blot method that the PDE9A expressed in the HEK293 cell, and then, the human PDE9A 1cDNA fragment was transfected in a pYNG vector (Katakura Industries Co., Ltd.) to thereby make an expression vector for insect cells. A supernatant of homogenized silk worm in which a large amount of PDE9 was expressed was purified by an equilibrated Ni column using a buffer A (20 mmol/L Tris-HCl, pH: 8.0, 1 mmol/L DTT, 10 mmol/L imidazole). After 1 hour of mixing of the supernatant and the Ni column, cleaning was carried out using a buffer B (20 mmol/L Tris-HCl, pH: 8.0, 1 mmol/L DTT), and elution was carried out using a buffer C (20 mmol/L Tris-HCl, pH: 8.0, 1 mmol/L DTT, 100 mmol/L imidazole). An elution fraction was preparatively collected to thereby obtain a PDE9 enzyme solution.
To 100 μL of a buffer D (40 mmol/L Tris-HCl, pH: 7.4, 10 mmol/L MgCl2, 1 mM DTT, 2 μM cGMP) solution containing [^3H]-cGMP (0.5 μCi/mL), 10 μL of a compound solution for evaluation (a solution in which a compound was dissolved in DMSO and diluted so that the DMSO concentration became 5%) and 90 μL of a solution prepared by diluting the PDE9 enzyme solution prepared in the above with a buffer E (40 mmol/L Tris-HCl, pH: 7.4, 10 mmol/L MgCl2, 1 mM DTT, 1 mmol/L EGTA) were added under ice cooling. The resultant mixed solution was incubated at 30° C. for 10 min, and thereafter heated for 2 min in boiled water to stop the enzyme reaction of the PDE9. Then, the resultant was returned to room temperature; 50 μL of 5′-Nucleotidase (Biomol GmbH, 10 units/mL) was added thereto; and the resultant was incubated at 30° C. for 10 min to thereby convert [^3H]-5′-GMP formed in the previous reaction to [^3H]-guanosine. 500 μL of an anion exchange resin (Bio-Rad AGl-X2 resin, mesh size: 200-400, H2O:resin=2:1) was added to the resultant reaction liquid, and allowed to stand for 10 min, and thereafter centrifuged (2,000 rpm, 10 min); and a supernatant in which the [^3H]-guanosine was present was transferred to a LumaPlate (PerkinElmer, Inc.), and the radioactivity was measured by a TopCount NXT microplate scintillation and luminescence counter (PerkinElmer, Inc.).
The inhibition percentage of the evaluation compound was calculated using the following expression, taking the radioactivity of a control containing no evaluation compound to be (A), the radioactivity of a blank containing no enzyme to be (B), and the radioactivity of the evaluation compound to be (C). Inhibition percentage=100−{[(C)−(B)]/[(A)−(B)]}×100(%)
The IC50 value for PDE9 of the evaluation compound was determined from inhibition percentage for various concentrations.

For another assay, the system named is cerebrospinal fluid cGMP. The experiment in a line: Effect on rodent cerebrospinal fluid cGMP. Format: in vivo. The note with it: rat (LE), 10 mg/kg p.o., sampling time 2 hr. The protocol: The test compound was administered to ICR male mice (Charles River Laboratories Japan, Inc.), Sprague-Dawley male rats (SD) (Charles River Laboratories Japan, Inc.) or Long-Evans male rats (LE) (Institute for Animal Reproduction), and the cerebrospinal fluid was then collected under pentobarbital anesthesia and stored at −20° C. cGMP in the cerebrospinal fluid was measured in accordance with the acetylation EIA procedure of cGMP EIA kit (GE Healthcare) or the non-acetylation procedure of cGMP EIA kit (Cayman). The result was an increase (C) in the amount of cGMP of the test compound-administered group (B) relative to the amount of cGMP of the vehicle-administered group (A), and was calculated using the following formula. cGMP increase(C)=[(B)−(A)]/(A)×100(%)

For a further assay, the system named is hippocampal cGMP. Nature of the assay: Effect on rodent hippocampal cGMP. Type of assay: in vivo. The note with it: rat (LE), 10 mg/kg p.o., sampling time 2 hr. The protocol:
The test compound was administered to Sprague-Dawley male rats (Charles River Laboratories Japan, Inc.) or Long-Evans male rats (Institute for Animal Reproduction) and then the animals were sacrificed with microwave under pentobarbital anesthesia, and the hippocampus was extracted. After measuring the wet weight, the hippocampus was frozen with liquid nitrogen and stored at −80° C. In the measurement of cGMP in the hippocampus, a 0.5 M perchloric acid/1 mM EDTA solution was added at 5% (w/v) based on the wet weight, and the mixture was homogenized. After the homogenization, the homogenate was centrifuged (10000 rpm, 15 min), and the supernatant was collected. The collected supernatant was neutralized with a 2 M potassium bicarbonate solution and centrifuged (13000 rpm, 10 min). The cGMP concentration in the supernatant was measured in accordance with the non-acetylation EIA procedure of cGMP EIA kit (GE Healthcare). The result was an increase (C) in the amount of cGMP of the test compound-administered group (B) relative to the amount of cGMP of the vehicle-administered group (A), and was calculated using the following formula. cGMP increase(C)=[(B)−(A)]/(A)×100(%)

T1 sequence (O76083 whole entry): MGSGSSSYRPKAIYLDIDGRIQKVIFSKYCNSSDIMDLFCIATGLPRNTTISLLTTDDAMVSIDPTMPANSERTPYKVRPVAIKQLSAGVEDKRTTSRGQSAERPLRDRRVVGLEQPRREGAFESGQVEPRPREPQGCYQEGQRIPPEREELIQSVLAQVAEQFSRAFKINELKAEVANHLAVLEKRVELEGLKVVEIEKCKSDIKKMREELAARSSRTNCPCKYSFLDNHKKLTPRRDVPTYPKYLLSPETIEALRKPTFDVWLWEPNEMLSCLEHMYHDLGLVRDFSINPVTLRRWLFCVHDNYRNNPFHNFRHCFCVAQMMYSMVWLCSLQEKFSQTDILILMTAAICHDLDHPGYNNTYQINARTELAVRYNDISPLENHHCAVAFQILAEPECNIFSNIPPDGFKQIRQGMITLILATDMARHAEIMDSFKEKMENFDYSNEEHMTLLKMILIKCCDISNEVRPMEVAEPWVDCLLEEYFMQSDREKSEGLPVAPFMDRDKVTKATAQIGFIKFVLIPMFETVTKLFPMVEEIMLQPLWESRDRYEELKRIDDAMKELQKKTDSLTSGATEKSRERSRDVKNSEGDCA

One may read the IC50 as the midpoint of a concentration-inhibition curve. Turning to `COc1nc(C)cc(C)c1-c1ccc2c(c1)[nH]c(=O)c1cnn([C@@H]3CCOC[C@@H]3C)c12` (single isomer, unassigned) [Example 2b, (−)-7-(2-Methoxy-4,6-dimethylpyridin-3-yl)-1-((3R*,4R*)-3-methyltetrahydro-2H-pyran-4-yl)-1H-pyrazolo[4,3-c]quinoline-4(5H)-one], in assay [1], the IC50 turned out to be 3.7 nM. Same read-out and setting: next, `COc1nc(C)cc(C)c1-c1ccc2c(c1)[nH]c(=O)c1cnn([C@@H]3CCOC[C@@H]3C)c12` (single isomer, unassigned) [Example 2c, (+)-7-(2-Methoxy-4,6-dimethylpyridin-3-yl)-1-((3R*,4R*)-3-methyltetrahydro-2H-pyran-4-yl)-1H-pyrazolo[4,3-c]quinoline-4(5H)-one]: 12.3 nM; `COc1ncc(C)c(-c2ccc3c(c2)[nH]c(=O)c2cnn([C@H]4CC[C@@H](OC)CC4)c23)c1C` [Example 5a, 7-(2-methoxy-3,5-dimethylpyridin-4-yl)-1-(cis-4-methoxycyclohexyl)-1H-pyrazolo[4,3-c]quinoline-4(5H)-one]: 9.8 nM. As to `COc1ncc(C)c(-c2ccc3c(c2)[nH]c(=O)c2cnn([C@H]4CC[C@H](OC)CC4)c23)c1C` [Example 5b, 7-(2-methoxy-3,5-dimethylpyridin-4-yl)-1-(trans-4-methoxycyclohexyl)-1H-pyrazolo[4,3-c]quinoline-4(5H)-one], the “% CSF cGMP increase from vehicle control” value in the assay on cerebrospinal fluid cGMP amounted to 167%. In addition, in assay [1], the IC50 stood at 12.7 nM. Moreover, the “% hippocampal cGMP increase from vehicle control” value (“% hippocampal cGMP increase” for short) in the assay on hippocampal cGMP was 41%. Regarding “(+)-7-(2-Methoxy-3,5-dimethylpyridin-4-yl)-1-((3R*,4R*)-3-methyltetrahydro-2H-pyran-4-yl)-1H-pyrazolo[4,3-c]quinoline-4(5H)-one [Example 3b]”, in assay [1], the IC50 was found to be 25.6 nM. The same measure, in the same setting: in the case of “(+)-7-(2-Methoxy-3,5-dimethylpyridin-4-yl)-1-((3R*,4S*)-3-methyltetrahydro-2H-pyran-4-yl)-1H-pyrazolo[4,3-c]quinoline-4(5H)-one [Example 4b]” it was 39.1 nM; in that of “(+)-7-(2-methoxy-4,6-dimethylpyridin-3-yl)-1-((3R*,4S*)-3-methyltetrahydro-2H-pyran-4-yl)-1H-pyrazolo[4,3-c]quinoline-4(5H)-one [Example 2a]”, 11.6 nM. In the case of “(+)-7-(6-Methoxy-2,4-dimethylpyridin-3-yl)-1-((3R*,4S*)-3-methyltetrahydro-2H-pyran-4-yl)-1H-pyrazolo[4,3-c]quinoline-4(5H)-one [Example 1c]”, the IC50 in assay [1] worked out at 87.2 nM. Consider “(+)-7-(6-methoxy-2,4-dimethylpyridin-3-yl)-1-((3R*,4R*)-3-methyltetrahydro-2H-pyran-4-yl)-1H-pyrazolo[4,3-c]quinoline-4(5H)-one [Example 1a]”, for which the IC50 in assay [1] turned out to be 48 nM. Still for that read-out and setting: in the case of “(−)-7-(2-Methoxy-3,5-dimethylpyridin-4-yl)-1-((3R*,4S*)-3-methyltetrahydro-2H-pyran-4-yl)-1H-pyrazolo[4,3-c]quinoline-4(5H)-one [Example 4a]” it was 5.8 nM. With “(−)-7-(2-Methoxy-4,6-dimethylpyridin-3-yl)-1-((3R*,4S*)-3-methyltetrahydro-2H-pyran-4-yl)-1H-pyrazolo[4,3-c]quinoline-4(5H)-one [Example 2d]”, in the assay with cerebrospinal fluid cGMP, the “% CSF cGMP increase from vehicle control” value stood at 183%. Moreover, in assay [1], the half-inhibitory concentration (IC50) turned out to be 1.3 nM. Also, in the assay on hippocampal cGMP, the “% hippocampal cGMP increase” value is recorded as 23%. Taken in the same sequence, the figures for “(−)-7-(2-methoxy-3,5-dimethylpyridin-4-yl)-1-((3R*,4R*)-3-methyltetrahydro-2H-pyran-4-yl)-1H-pyrazolo[4,3-c]quinoline-4(5H)-one [Example 3a]” were 200%, 6.9 nM and 58%. Consider “(−)-7-(6-Methoxy-2,4-dimethylpyridin-3-yl)-1-((3R*,4R*)-3-methyltetrahydro-2H-pyran-4-yl)-1H-pyrazolo[4,3-c]quinoline-4(5H)-one [Example 1b]”, for which the “% CSF cGMP increase from vehicle control” value with cerebrospinal fluid cGMP is listed as 147%. In addition, the IC50 in assay [1] amounted to 13.6 nM. Moreover, the “% hippocampal cGMP increase” value in the assay with hippocampal cGMP came out at 44%. For “(−)-7-(6-Methoxy-2,4-dimethylpyridin-3-yl)-1-((3R*,4S*)-3-methyltetrahydro-2H-pyran-4-yl)-1H-pyrazolo[4,3-c]quinoline-4(5H)-one [Example 1d]”, the “% CSF cGMP increase from vehicle control” value in the assay on cerebrospinal fluid cGMP was 206%. For the same compound, the IC50 in assay [1] was determined as 6.9 nM. Further, in the assay with hippocampal cGMP, the “% hippocampal cGMP increase” value was found to be 61%.

The values are drawn from patent US9550776B2, “Pyridinylpyrazoloquinoline compounds” (Eisai R&D Management Co., Ltd., priority 2013, dated 2017).
